Laboratory results as given in ChEMBL document CHEMBL5137120, “Modified ent-Abietane Diterpenoids from the Leaves of Suregada zanzibariensis” (J Nat Prod, 2022).

What was measured:
[1] = Cytotoxicity against African green monkey GMK-AH-1 cell assessed as cell growth inhibition at >=100 uM incubated for 3 days by CellTiter96 Aqueous one reagent based assay; type: toxicity; conditions: chlorocebus aethiops, gmk-ah-1, 72 h, time 3 day
[2] = Cytotoxicity against human THP-1 cells assessed as cell growth inhibition incubated for 24 hrs by MTT assay; type: toxicity, cell-based

Row | Structure (SMILES) | Activity [1] | IC50 at 24 h [2] [µM]
1 | C=C1[C@@H](C)CC(=O)[C@@]2(C)[C@@H]3C[C@H]4OC(=O)C(C)=C4[C@H]4O[C@]43CC[C@]12O | Non-Toxic | 
2 | C=C1[C@@H](C)CC(=O)[C@@]2(C)[C@@H]3C[C@H]4OC(=O)C(C)=C4C=C3CC[C@]12O | Non-Toxic | 
3 | CC(C)[C@H]1CC[C@@H]2[C@]1(C)CC[C@]1(C)[C@H]3CC=C4[C@@H](CC[C@H](O)C4(C)C)[C@]3(C)CC[C@@]21C | Non-Toxic | 1.78
